# Reference: patent US11730720B2, “ALK5 inhibitors” (THERAVANCE BIOPHARMA R&D IP, LLC, priority 2018, dated 2023)
# Tests used:
# [1] = biological target: T1, recombinant human ALK5 (TGF-βR1) protein (Homo sapiens, UniProt P36897); experiment: Biochemical ALK5 (TGF-βR1) assay to measure pKi (LANCE Ultra ULight kinase assay); settings: apparent pKi, converted from pIC50 using the Cheng-Prusoff equation
# T1 construct: purchased Life Technologies PR9075A
# T1 sequence (P36897 34-503): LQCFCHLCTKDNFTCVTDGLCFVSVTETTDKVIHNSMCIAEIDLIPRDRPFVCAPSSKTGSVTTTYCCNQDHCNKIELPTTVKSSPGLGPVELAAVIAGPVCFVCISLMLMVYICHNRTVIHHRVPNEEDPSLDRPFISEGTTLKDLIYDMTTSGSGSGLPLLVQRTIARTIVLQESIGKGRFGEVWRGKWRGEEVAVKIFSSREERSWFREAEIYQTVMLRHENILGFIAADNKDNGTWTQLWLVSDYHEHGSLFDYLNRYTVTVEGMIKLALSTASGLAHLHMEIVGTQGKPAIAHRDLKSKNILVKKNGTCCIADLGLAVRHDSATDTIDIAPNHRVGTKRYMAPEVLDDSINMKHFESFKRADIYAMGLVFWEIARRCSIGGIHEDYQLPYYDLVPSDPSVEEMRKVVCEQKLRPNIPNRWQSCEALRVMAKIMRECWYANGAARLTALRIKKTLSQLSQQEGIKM
# Procedure, shortened: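 TR-FRET kinase format: compound dose range 10 μM–25 pM equilibrated 60 min with human ALK5 and ULight-labelled topoisomerase 2α peptide in HEPES/MgCl2 buffer pH 7.5 with DTT. Reaction started with ATP (125 μM stock, 5× final), 60 min at 37° C, stopped with EDTA/Eu-anti-phospho antibody; pKi derived from pIC50 via Cheng-Prusoff.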
# [2] = system: TGF-β-stimulated SMAD3 phosphorylation in BEAS-2B cells; experiment: Cellular ALK5 potency assay, inhibition of TGF-β stimulated pSMAD3 formation in BEAS-2B cells; format: cell-based; settings: Homo sapiens, inhibition of TGF-β (10 ng/mL) stimulated pSMAD3 formation, 1 hour compound incubation, read-out: BEAS2B pIC50 (converted)
# Procedure, shortened: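 Phospho-SMAD3 was quantified by AlphaLISA in lysates of human lung epithelial BEAS-2B cells. Compound was added 1 h (37 °C, HEPES/BSA-supplemented HBSS) before a 30 min challenge with 10 ng/mL TGF-β. Values are pIC50 relative to stimulated cells without compound.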
Structure (SMILES),Ki [1] [nM],IC50 [2] [nM]
"NCCn1cc(-c2cnc3ccc(-c4nc[nH]c4-c4cc(Cl)ccc4F)nc3c2)cn1 [Compound 2-20, 2-[4-[6-[5-(5-chloro-2-fluoro-phenyl)-1H-imidazol-4-yl]-1,5-naphthyridin-3-yl]pyrazol-1-yl]ethanamine]",0.0398 to 0.316,25.1 to 158
"Fc1cc(F)c(-c2n[nH]cc2-c2ccc3ncc(N4CC(N5CCCCC5)C4)cc3n2)cc1Cl [Compound 6-14, 2-(3-(5-chloro-2,4-difluorophenyl)-1H-pyrazol-4-yl)-7-(3-(piperidin-1-yl)azetidin-1-yl)-1,5-naphthyridine]",0.0398 to 0.316,25.1 to 158
"CN1CC=C(c2cnc3ccc(-c4c[nH]nc4-c4ccc(F)c(F)c4)nc3c2)C1 [Compound 8-22, 2-(3-(3,4-difluorophenyl)-1H-pyrazol-4-yl)-7-(1-methyl-2,5-dihydro-1H-pyrrol-3-yl)-1,5-naphthyridine]",0.398 to 3.16,25.1 to 158
"Fc1ccc(Cl)cc1-c1[nH]cnc1-c1ccc2ncc(NC[C@@H]3CCCN3)cc2n1 [Compound 2-30, 6-[5-(5-chloro-2-fluoro-phenyl)-1H-imidazol-4-yl]-N-[[(2S)-pyrrolidin-2-yl]methyl]-1,5-naphthyridin-3-amine]",0.398 to 3.16,200 to 1260
"Fc1ccc(Cl)cc1-c1[nH]cnc1-c1ccc2ncc(N3CCNCC3)cc2c1 [Compound 17-4, 6-(5-(5-chloro-2-fluorophenyl)-1H-imidazol-4-yl)-3-(piperazin-1-yl)quinoline]",0.398 to 3.16,25.1 to 158
"CNCCn1cc(-c2cnc3ccc(-c4c[nH]nc4-c4cccc(COC)c4)nc3c2)cn1 [Compound 14-8, 2-(4-(6-(3-(3-(methoxymethyl)phenyl)-1H-pyrazol-4-yl)-1,5-naphthyridin-3-yl)-1H-pyrazol-1-yl)-N-methylethan-1-amine]",0.0398 to 0.316,25.1 to 158
"CC(C)N1CCN(CCNc2cnc3ccc(-c4c(-c5cc(Cl)ccc5F)nc5ccccn45)nc3c2)CC1 [Compound 3-1, 6-(2-(5-chloro-2-fluorophenyl)imidazo[1,2-a]pyridin-3-yl)-N-(2-(4-isopropylpiperazin-1-yl)ethyl)-1,5-naphthyridin-3-amine]",0.0398 to 0.316,25.1 to 158
"CC(C)N1CC=C(c2cnc3ccc(-c4c[nH]nc4-c4ccc(F)c(F)c4)nc3c2)C1 [Compound 8-23, 2-[3-(3,4-difluorophenyl)-1H-pyrazol-4-yl]-7-(1-isopropyl-2,5-dihydropyrrol-3-yl)-1,5-naphthyridine]",0.398 to 3.16,25.1 to 158
"Fc1ccc(Cl)cc1-c1nc2ccccn2c1-c1ccc2ncc(N3CCNCC3)cc2c1 [Compound 19-4, 6-(2-(5-chloro-2-fluorophenyl)imidazo[1,2-a]pyridin-3-yl)-3-(piperazin-1-yl)quinoline]",0.0398 to 0.316,200 to 1260
"CN(C)C1CCN(c2cnc3ccc(-c4nc[nH]c4-c4cc(Cl)ccc4F)cc3c2)C1 (racemic) [Compound 17-5, rac-(3S)-1-[6-[5-(5-chloro-2-fluoro-phenyl)-1H-imidazol-4-yl]-3-quinolyl]-N,N-dimethyl-pyrrolidin-3-amine]",0.0398 to 0.316,25.1 to 158
"NCCn1cc(-c2cnc3ccc(-c4c[nH]nc4-c4cc(Cl)ccc4F)nc3c2)cn1 [Compound 1-89, 2-[4-[6-[3-(5-chloro-2-fluoro-phenyl)-1H-pyrazol-4-yl]-1,5-naphthyridin-3-yl]pyrazol-1-yl]ethanamine]",≤ 0.0316,25.1 to 158
"CN1CCC(N(C)c2cnc3ccc(-c4c[nH]nc4-c4cc(Cl)ccc4F)nc3c2)CC1 [Compound 1-37, 6-[3-(5-chloro-2-fluoro-phenyl)-1H-pyrazol-4-yl]-N-methyl-N-(1-methyl-4-piperidyl)-1,5-naphthyridin-3-amine]",0.0398 to 0.316,25.1 to 158
"CC(C)N1CCN(CCNc2cnc3ccc(-c4nc[nH]c4-c4cc(Cl)c(F)cc4F)cc3c2)CC1 [Compound 22-4, 6-(5-(5-chloro-2,4-difluorophenyl)-1H-imidazol-4-yl)-N-(2-(4-isopropylpiperazin-1-yl)ethyl)quinolin-3-amine]",0.0398 to 0.316,25.1 to 158
"COCc1cccc(-c2n[nH]cc2-c2ccc3ncc(C4=CCC(N)CC4)cc3n2)c1 (centres unmarked) [Compound 14-12, 4-[6-[3-[3-(methoxymethyl)phenyl]-1H-pyrazol-4-yl]-1,5-naphthyridin-3-yl]cyclohex-3-en-1-amine]",0.398 to 3.16,25.1 to 158
"NCCn1cc(-c2cnc3ccc(-c4c[nH]nc4-c4ccc(F)c(F)c4)nc3c2)cn1 [Compound 8-17, 2-[4-[6-[3-(3,4-difluorophenyl)-1H-pyrazol-4-yl]-1,5-naphthyridin-3-yl]pyrazol-1-yl]ethanamine]",≤ 0.0316,≤ 20
"Fc1ccc(Cl)cc1-c1n[nH]cc1-c1ccc2ncc(N3CCn4nc(N5CCN(Cc6ccccc6)CC5)cc4C3)cc2n1 [Compound 1-47, 7-[2-(4-benzylpiperazin-1-yl)-6,7-dihydro-4H-pyrazolo[1,5-a]pyrazin-5-yl]-2-[3-(5-chloro-2-fluoro-phenyl)-1H-pyrazol-4-yl]-1,5-naphthyridine]",0.0398 to 0.316,25.1 to 158
"Fc1ccc(Cl)cc1-c1[nH]cnc1-c1ccc2ncc(-c3nnn4c3CNCC4)cc2c1 [Compound 17-12, 6-[5-(5-chloro-2-fluoro-phenyl)-1H-imidazol-4-yl]-3-(4,5,6,7-tetrahydrotriazolo[1,5-a]pyrazin-3-yl)quinoline]",0.398 to 3.16,25.1 to 158
"CNCCn1cc(-c2cnc3ccc(-c4c(-c5cc(Cl)ccc5F)nc5ccccn45)cc3c2)cn1 [Compound 19-1, 2-(4-(6-(2-(5-chloro-2-fluorophenyl)imidazo[1,2-a]pyridin-3-yl)quinolin-3-yl)-1H-pyrazol-1-yl)-N-methylethan-1-amine]",0.0398 to 0.316,25.1 to 158

# Further lines, with some results ahead:
Ki [1] [nM],Structure (SMILES),IC50 [2] [nM]
0.398 to 3.16,"CC(C)N1CCN(c2cnc3ccc(-c4c[nH]nc4-c4ccc(F)c(F)c4)nc3c2)CC1 [Compound 8-10, 2-[3-(3,4-difluorophenyl)-1H-pyrazol-4-yl]-7-(4-isopropylpiperazin-1-yl)-1,5-naphthyridine]",25.1 to 158
0.0398 to 0.316,"NC1CCN(c2cnc3ccc(-c4c[nH]nc4-c4cc(Cl)ccc4F)nc3c2)CC1 [Compound 1-135, 1-[6-[3-(5-chloro-2-fluoro-phenyl)-1H-pyrazol-4-yl]-1,5-naphthyridin-3-yl]piperidin-4-amine]",25.1 to 158
0.0398 to 0.316,"Fc1ccc(Cl)cc1-c1n[nH]cc1-c1ccc2ncc(NCCN3CCC3)cc2n1 [Compound 1-8, N-[2-(azetidin-1-yl)ethyl]-6-[3-(5-chloro-2-fluoro-phenyl)-1H-pyrazol-4-yl]-1,5-naphthyridin-3-amine]",≤ 20
0.0398 to 0.316,"CNC1CN(c2cnc3ccc(-c4c[nH]nc4-c4cc(Cl)c(F)cc4F)nc3c2)C1 [Compound 6-31, 1-[6-[3-(5-chloro-2,4-difluoro-phenyl)-1H-pyrazol-4-yl]-1,5-naphthyridin-3-yl]-N-methyl-azetidin-3-amine]",≤ 20
0.0398 to 0.316,"Fc1ccc(Cl)cc1-c1n[nH]cc1-c1ccc2ncc(-c3[nH]nc4c3CNCC4)cc2n1 [Compound 1-115, 2-[3-(5-chloro-2-fluoro-phenyl)-1H-pyrazol-4-yl]-7-(4,5,6,7-tetrahydro-2H-pyrazolo[4,3-c]pyridin-3-yl)-1,5-naphthyridine]",25.1 to 158
0.0398 to 0.316,"NC1CN(c2cnc3ccc(-c4c[nH]nc4-c4cc(Cl)ccc4F)nc3c2)C1 [Compound 1-52, 1-[6-[3-(5-chloro-2-fluoro-phenyl)-1H-pyrazol-4-yl]-1,5-naphthyridin-3-yl]azetidin-3-amine]",≤ 20
0.0398 to 0.316,"CNC(=O)C1CN(c2cnc3ccc(-c4c[nH]nc4-c4cc(Cl)ccc4F)nc3c2)CCN1 (racemic) [Compound 1-51, rac-(2R)-4-[6-[3-(5-chloro-2-fluoro-phenyl)-1H-pyrazol-4-yl]-1,5-naphthyridin-3-yl]-N-methyl-piperazine-2-carboxamide]",25.1 to 158
0.398 to 3.16,"COC(=O)CC1CN(c2cnc3ccc(-c4nc[nH]c4-c4cccc(Cl)c4)nc3c2)CCN1 (centres unmarked) [Compound 29-3, methyl 2-(4-(6-(5-(3-chlorophenyl)-1H-imidazol-4-yl)-1,5-naphthyridin-3-yl)piperazin-2-yl)acetate]",25.1 to 158
0.398 to 3.16,"O=C(O)[C@@H]1CN(c2cnc3ccc(-c4nc[nH]c4-c4cc(Cl)ccc4F)nc3c2)CCN1 [Compound 2-13, (S)-4-(6-(5-(5-chloro-2-fluorophenyl)-1H-imidazol-4-yl)-1,5-naphthyridin-3-yl)piperazine-2-carboxylic acid]",200 to 1260
3.98 to 31.6,"Fc1ccc(-c2n[nH]cc2-c2ccc3ncc(N4CCNCC4)cc3n2)cc1F [Compound 8-4, 2-[3-(3,4-difluorophenyl)-1H-pyrazol-4-yl]-7-piperazin-1-yl-1,5-naphthyridine]",25.1 to 158
